Assay results from US8815875B2 (Merck Sharp & Dohme Corp., priority 2008, dated 2014).
pKd: −log10 of the molar value.

Biological target: FABP4 (Homo sapiens, UniProt P15090)
Assay: TdF (Temperature Dependence Fluorescence) assay, thermal shift, FABP4
Type: binding
How it was run: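 Binding measured as ΔTm versus protein alone; binding constants derived by nonlinear fitting with ΔHL set to −7 kcal/mol and ΔCpL to zero.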

Sequence of FABP4 (P15090 whole entry, species assumed): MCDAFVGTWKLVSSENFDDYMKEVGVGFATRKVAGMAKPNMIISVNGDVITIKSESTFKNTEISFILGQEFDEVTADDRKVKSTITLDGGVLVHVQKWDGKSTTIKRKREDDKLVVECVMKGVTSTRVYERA

SMILES	FABP4 TdF Kd	pKd
CN(C(=O)C1(OCc2[nH]c3nc(-c4ccccc4)nn3c(=O)c2Cl)CCCCC1)C1CCCCC1 [50-4]	B (0.5 ≦ B < 0.001 μM)	–
O=c1cc(Cn2ncc3ccccc32)[nH]c2nc(-c3ccccc3)nn12 [1-12]	–	< 6.30
CN(Cc1cccc(Cl)c1)C(=O)C1(OCc2cc(=O)n3nc(-c4ccccc4)nc3[nH]2)CCCCC1 [48-31]	B (0.5 ≦ B < 0.001 μM)	–
Cc1c(OCc2cc(=O)n3nc(-c4ccccc4)nc3[nH]2)cccc1C(F)(F)F [1-85]	B (0.5 ≦ B < 0.001 μM)	–
O=c1cc(CN2CCCC2Cc2ccc(F)cc2)[nH]c2nc(-c3ccccc3)nn12 (stereo not drawn) [1-56]	–	< 6.30
Cc1c(Cl)cccc1OC(C)c1cc(=O)n2nc(-c3ccccc3)nc2[nH]1 (single isomer, unassigned) [37-7]	B (0.5 ≦ B < 0.001 μM)	–
CCCCc1cn(Cc2cc(=O)n3nc(-c4ccccc4)nc3[nH]2)c2cccc(Cl)c12 [1-143]	B (0.5 ≦ B < 0.001 μM)	–
Cc1cc(NC(=O)C2(OCc3cc(=O)n4nc(-c5ccccc5)nc4[nH]3)CCCCC2)n(C)n1 [48-35]	–	< 6.30
CCc1c(Cl)cccc1OCc1cc(=O)n2nc(-c3ccccc3)nc2[nH]1 [21-3]	B (0.5 ≦ B < 0.001 μM)	–
COc1ccc2c(c1)CN(Cc1cc(=O)n3nc(-c4ccccc4)nc3[nH]1)C2=O [1-29]	–	< 6.30
COc1c(Cl)cccc1OCc1cc(=O)n2nc(-c3ccccc3)nc2[nH]1 [1-55]	B (0.5 ≦ B < 0.001 μM)	–
O=c1cc(CO[C@@H]2C[C@H]3CC[C@@H]2C3)[nH]c2nc(-c3ccccc3)nn12 [1-107]	B (0.5 ≦ B < 0.001 μM)	–
O=c1cc(CN2CCCc3ccccc32)[nH]c2nc(-c3ccccc3)nn12 [1-13]	B (0.5 ≦ B < 0.001 μM)	–
O=c1cc(CN(c2cccc(Cl)c2)C2CC2)[nH]c2nc(-c3ccccc3)nn12 [17-3]	B (0.5 ≦ B < 0.001 μM)	–
COc1cc2c(cc1OC)CN(Cc1cc(=O)n3nc(-c4ccccc4)nc3[nH]1)C2 [6-5]	–	< 6.30
O=c1cc(COc2cccc3ncccc23)[nH]c2nc(-c3ccccc3)nn12 [1-80]	B (0.5 ≦ B < 0.001 μM)	–
CC(=O)N1CCC(OCc2cc(=O)n3nc(-c4ccccc4)nc3[nH]2)CC1 [1-49]	–	< 6.30
Cc1nc(-c2ccc(OCc3cc(=O)n4nc(-c5ccccc5)nc4[nH]3)c(F)c2)cs1 [1-34]	–	< 6.30
CC(C)(C)OC(=O)N1CCC(OCc2cc(=O)n3nc(-c4ccccc4)nc3[nH]2)(C(=O)NCC2CC2)CC1 [48-21]	–	< 6.30
O=C(NC1CCCCC1)c1ccccc1OCc1[nH]c2nc(-c3ccccc3)nn2c(=O)c1Cl [24-13]	B (0.5 ≦ B < 0.001 μM)	–
Cc1ccsc1-c1nc2[nH]c(COc3cccc(Cl)c3C)cc(=O)n2n1 [1-113]	–	< 6.30
O=c1cc(CO[C@H]2C[C@H]3CC[C@@H]2C3)[nH]c2nc(-c3ccccc3)nn12 [1-108]	B (0.5 ≦ B < 0.001 μM)	–

SMILES	FABP4 TdF Kd	pKd
C[C@@H]1C[C@@H](OCc2cc(=O)n3nc(-c4ccccc4)nc3[nH]2)CC(C)(C)C1 [1-110]	B (0.5 ≦ B < 0.001 μM)	–
CNCC1(COC(=O)C2(OCc3cc(=O)n4nc(-c5ccccc5)nc4[nH]3)CCCCC2)CCC1 [48-47]	–	< 6.30
CN1CCN(CCNCc2c(Cl)cccc2OCc2cc(=O)n3nc(-c4ccccc4)nc3[nH]2)CC1 [33-3]	–	< 6.30
O=C(NCC1(CO)CCCC1)c1ccccc1OCc1cc(=O)n2nc(-c3ccccc3)nc2[nH]1 [47-59]	B (0.5 ≦ B < 0.001 μM)	–
O=C(NCC1(c2ccccc2Cl)CCC1)C1(OCc2cc(=O)n3nc(-c4ccccc4)nc3[nH]2)CCCCC1 [48-34]	B (0.5 ≦ B < 0.001 μM)	–
Cc1cc(C(C)(C)C)ccc1OCc1cc(=O)n2nc(-c3ccccc3)nc2[nH]1 [1-74]	–	< 6.30
CC(NC(=O)c1c(Cl)cccc1OCc1cc(=O)n2nc(-c3ccccc3)nc2[nH]1)C1CCC1 (stereo not drawn) [47-36]	B (0.5 ≦ B < 0.001 μM)	–
O=C(O)C1(OCc2cc(=O)n3nc(-c4ccccc4)nc3[nH]2)CCCCC1 [48-2, 1-((7-oxo-2-phenyl-4,7-dihydro-[1,2,4]triazolo[1,5-a]pyrimidin-5-yl)methoxy)cyclohexanecarboxylic acid]	–	< 6.30
Cn1nc(C2CC2)cc1NC(=O)C1(OCc2cc(=O)n3nc(-c4ccccc4)nc3[nH]2)CCCCC1 [48-39]	B (0.5 ≦ B < 0.001 μM)	–
O=C(NCC1(CO)CCCC1)C1(OCc2[nH]c3nc(-c4ccccc4)nn3c(=O)c2Cl)CCCCC1 [50-5]	–	≥ 9.00
O=C(NCC1CCC1)C1(OCc2cc(=O)n3nc(-c4ccccc4)nc3[nH]2)CCCCC1 [48-20]	B (0.5 ≦ B < 0.001 μM)	–
COc1ccccc1C1(CNC(=O)C2(OCc3cc(=O)n4nc(-c5ccccc5)nc4[nH]3)CCCCC2)CC1 [48-12, N-((1-(2-methoxyphenyl)cyclopropyl)methyl)-1-((7-oxo-2-phenyl-4,7-dihydro-[1,2,4]triazolo[1,5-a]pyrimidin-5-yl)methoxy)cyclohexanecarboxamide]	–	≥ 9.00
O=C(NC1CCCCC1)C1(OCc2cc(=O)n3nc(-c4ccccc4)nc3[nH]2)CCCCC1 [48-40]	B (0.5 ≦ B < 0.001 μM)	–
O=C(O)c1c(Cl)cccc1OCc1cc(=O)n2nc(-c3ccccc3)nc2[nH]1 [47-1, 2-chloro-6-((7-oxo-2-phenyl-4,7-dihydro-[1,2,4]triazolo[1,5-a]pyrimidin-5-yl)methoxy)benzoic acid]	B (0.5 ≦ B < 0.001 μM)	–
Cc1c(Cl)cccc1OC(C)c1cc(=O)n2nc(-c3ccccc3)nc2[nH]1 (single isomer, unassigned) [37-6]	B (0.5 ≦ B < 0.001 μM)	–
Cc1c(Cl)cccc1NCc1[nH]c2ncnn2c(=O)c1Cl [13-2]	–	< 6.30
CC1(C)CCCC(C)(C)C1OCc1cc(=O)n2nc(-c3ccccc3)nc2[nH]1 [1-102]	–	< 6.30
O=c1cc(COc2cccc(C(F)(F)F)c2)[nH]c2nc(C(F)(F)F)nn12 [5-3]	–	< 6.30
Cc1c(Cl)cccc1OCc1cc(=O)n2nc(-c3cccs3)nc2[nH]1 [8-13]	B (0.5 ≦ B < 0.001 μM)	–
COc1cccc(C)c1OCc1cc(=O)n2nc(-c3ccccc3)nc2[nH]1 [1-58]	B (0.5 ≦ B < 0.001 μM)	–
Cc1ccccc1C1(NC(=O)C2(OCc3cc(=O)n4nc(-c5ccccc5)nc4[nH]3)CCCCC2)CC1 [48-50]	B (0.5 ≦ B < 0.001 μM)	–
O=C(Nc1c(Cl)cccc1OCc1cc(=O)n2nc(-c3ccccc3)nc2[nH]1)C1CCCC1 [49-4]	B (0.5 ≦ B < 0.001 μM)	–

SMILES	FABP4 TdF Kd	pKd
O=C(NC1(CO)CC1)c1c(Cl)cccc1OCc1cc(=O)n2nc(-c3ccccc3)nc2[nH]1 [47-12, 2-chloro-N-(1-(hydroxymethyl)cyclopropyl)-6-((7-oxo-2-phenyl-4,7-dihydro-[1,2,4]triazolo[1,5-a]pyrimidin-5-yl)methoxy)benzamide]	B (0.5 ≦ B < 0.001 μM)	–
O=C(NCCc1cccc(Cl)c1)C1(OCc2cc(=O)n3nc(-c4ccccc4)nc3[nH]2)CCCCC1 [48-45]	B (0.5 ≦ B < 0.001 μM)	–
O=c1cc(COc2cccc(Cl)c2CNCCN2CCOCC2)[nH]c2nc(-c3ccccc3)nn12 [33-2]	–	< 6.30
Cn1nc(C2CC2)cc1NC(=O)c1c(Cl)cccc1OCc1cc(=O)n2nc(-c3ccccc3)nc2[nH]1 [47-11]	B (0.5 ≦ B < 0.001 μM)	–
Cc1c(F)cccc1OCc1cc(=O)n2nc(-c3ccccc3)nc2[nH]1 [1-39]	B (0.5 ≦ B < 0.001 μM)	–
O=c1cc(COc2cc(Cl)cc(Cl)c2Cl)[nH]c2nc(-c3ccccc3)nn12 [1-87]	B (0.5 ≦ B < 0.001 μM)	–
CCc1ccc(OCc2[nH]c3ncnn3c(=O)c2F)cc1 [7-2]	–	< 6.30
O=c1cc(COc2cccnc2)[nH]c2nc(-c3ccccc3)nn12 [1-19]	–	< 6.30
O=C(NCC1(CO)CC1)c1c(Cl)cccc1OCc1cc(=O)n2nc(-c3ccccc3)nc2[nH]1 [47-18, 2-chloro-N-((1-(hydroxymethyl)cyclopropyl)methyl)-6-((7-oxo-2-phenyl-4,7-dihydro-[1,2,4]triazolo[1,5-a]pyrimidin-5-yl)methoxy)benzamide]	B (0.5 ≦ B < 0.001 μM)	–
O=C(NCC1(CO)COC1)c1c(Cl)cccc1OCc1cc(=O)n2nc(-c3ccccc3)nc2[nH]1 [47-34, 2-chloro-N-((3-(hydroxymethyl)oxetan-3-yl)methyl)-6-((7-oxo-2-phenyl-4,7-dihydro-[1,2,4]triazolo[1,5-a]pyrimidin-5-yl)methoxy)benzamide]	B (0.5 ≦ B < 0.001 μM)	–
O=c1cc(CN2CCc3ccc(Cl)cc32)[nH]c2nc(-c3ccccc3)nn12 [1-83]	B (0.5 ≦ B < 0.001 μM)	–
CN(C(=O)C1(OCc2cc(=O)n3nc(-c4ccccc4)nc3[nH]2)CCCCC1)C1CC1 [48-28]	B (0.5 ≦ B < 0.001 μM)	–
O=C(O)C1(OCc2cc(=O)n3nc(-c4ccccc4)nc3[nH]2)CCCC1 [48-78]	–	< 6.30
Cc1ccc(OCc2cc(=O)n3nc(C(F)(F)F)nc3[nH]2)cc1C [5-4]	–	< 6.30
O=C(NC1(c2ccccc2)CC1)C1(OCc2cc(=O)n3nc(-c4ccccc4)nc3[nH]2)CCCCC1 [48-51]	B (0.5 ≦ B < 0.001 μM)	–
O=c1cc(CN2CCOc3c(Br)cccc32)[nH]c2nc(-c3ccccc3)nn12 [1-81]	B (0.5 ≦ B < 0.001 μM)	–
Cc1cc(OCc2cc(=O)n3nc(-c4ccccc4)nc3[nH]2)ccc1C(C)C [1-70]	B (0.5 ≦ B < 0.001 μM)	–
CNc1cccc(N(C)Cc2cc(=O)n3nc(-c4ccccc4)nc3[nH]2)c1C1CC1 [19-2]	B (0.5 ≦ B < 0.001 μM)	–
O=C(NC1(CO)CC1)C1(OCc2cc(=O)n3nc(-c4ccccc4)nc3[nH]2)CCCCC1 [48-36]	B (0.5 ≦ B < 0.001 μM)	–
O=C(NCC1(CO)CCOCC1)c1c(Cl)cccc1OCc1cc(=O)n2nc(-c3ccccc3)nc2[nH]1 [47-26, 2-chloro-N-((4-(hydroxymethyl)tetrahydro-2H-pyran-4-yl)methyl)-6-((7-oxo-2-phenyl-4,7-dihydro-[1,2,4]triazolo[1,5-a]pyrimidin-5-yl)methoxy)benzamide]	B (0.5 ≦ B < 0.001 μM)	–
O=c1cc(CN2CCCC2Cc2ccncn2)[nH]c2nc(-c3ccccc3)nn12 (stereo not drawn) [1-103]	–	< 6.30
Cn1nccc1NC(=O)C1(OCc2cc(=O)n3nc(-c4ccccc4)nc3[nH]2)CCCCC1 [48-32]	B (0.5 ≦ B < 0.001 μM)	–
